How the values were obtained:
[1] = tested on: CD8 T cell (CTL) responses to particulate HIV gp120 antigen; test: CTL priming after co-injection of adjuvant with gp120/latex beads (51Cr-release CTL assay); assay type: in vivo, Balb/c mice
Procedure: Immunization of mice with antigen-polystyrene beads (2-10 μg) +/− cytosolic fractions and assays for the priming of CTL were performed as previously described ^16. Fractions from the GF-250 column were injected without further manipulation, while fractions from all other columns were dried and reconstituted to normal osmolarity before injection. Fractions from 1%-10% of liver cytosol were typically injected into mice. Pooled fractions without adjuvant activity were standardly used as negative controls. For in vitro stimulation, splenocytes from immunized mice were stimulated directly with 10^−8 M peptide (RGPGRAFVTL-SEQ ID NO: 1 or SIINFEKL-SEQ ID NO: 2) and were then assayed as previously described.^16
Each four consecutive fractions (4 minutes) were pooled and tested for their ability to augment the priming of CD8 T cell responses when co-injected with particulate HIV gp120 antigen. After 14 days, splenocytes were harvested from the primed animals and were stimulated ex vivo with either antigen-transfected or peptide-pulsed syngeneic cells. The re-stimulated cells were then assayed for their ability to kill antigen-bearing target cells in a standard ^51Cr-release as say.^16
To further evaluate this point, highly purified uric acid was tested for adjuvant activity. Highly purified uric acid (50 μg), highly purified LMW fraction from a C18 column, or PBS as control were mixed with 5 μg gp120/latex beads in 100 μl of saline and injected into two Balb/c mice. CTL from these mice were assayed for killing of 15.12 (gp120-transfected 3T3) cells (filled triangles), or vector-transfected control 3T3 cells (open squares). Results from individual mice are presented (FIG. 3A-C, wherein % Lysis indicates the degree of cell killing and the E:T ratio indicates the ratio of Effector cell:Target cell, e.g., the ratio of cytotoxic T-cell: antigen positive target cell).
To determine more precisely the amount of uric acid necessary to provide an adjuvant effect in vivo, the amount of uric acid injected into mice was titrated from 2.5-40 μg (in 100 μl; from a concentration of 25-400 μg/ml) and adjuvant activity assayed as described in Example II above. […] This amount of uric acid is produced by about 2×10^6 UV-treated 3T3 cells (See FIG. 3J).
To further evaluate the activity of xanthine crystals, xanthine crystals were tested for adjuvant activity in experiments carried out similarly to those described in Example II above. Highly purified uric acid (500 μg), highly purified xanthine (500 μg), or PBS as control were mixed with 2 μg gp120/latex beads in 100 μl of saline and injected into two Balb/c mice. CTL from these mice were assayed for killing of 15.12 (gp120-transfected 3T3) cells (filled squares). Results from individual mice are presented (FIG. 6A-C), wherein % Lysis indicates the degree of cell killing and the E:T ratio indicates the ratio of Effector cell:Target cell, e.g., the ratio of cytotoxic T-cell:antigen presenting cell.

dendritic cells = test: Expression of CD80 and CD86 on dendritic cells from TLR4+/+ or TLR4-/- mice; assay type: cell-based, C57BL/6 (TLR4+/+) or C.C3H lps-d (TLR4-/-) mice; conditions: 6 hours
Procedure: (§1) Bone marrow was cultured for 7 days in media containing 10 u/ml of both GM-CSF and IL-4, as previously described.^24 Fresh media (50% volume) containing cytokines was added at the 4th day of culture. At day 7, floating cells were removed by aspiration after gentle rocking, and soluble or crystalline uric acid was added. Following a 6 hour incubation, the media was gently removed and replaced with PBS containing either 0.5% heparin (sigma) or 0.5 μM polyvinyl sulfate (100 KD, Sigma) in order to detach bound crystals. Following a 10 minute incubation, cells were gently removed by scraping, washed once in 50 ml of media and 3 times with 50 ml of PBS in order to dissolve any remaining crystals, and then stained and assayed by flow cytometry as previously described.^15 To quantify MSU crystal formation in culture, a parallel set of wells was prepared without dendritic cells, and the crystals harvested by centrifugation, washed with absolute alcohol and dissolved in 0.1N NaOH. The amount of uric acid in the solubilized precipitates was determined by measuring UV absorption at 292 nm against a set of standard uric acid/NaOH solutions.
As discussed in Example III, LPS has a stimulatory activity and is frequently a contaminant of reagents. Dendritic cells from the TLR4-null mice were examined to verify that LPS was not the source of the observed stimulatory activity.

EL4 cells = test: Uric acid measurement in the cytosol of treated cells; assay type: cell-based; conditions: 25 μg/ml cycloheximide or 8 μM emetine, after 5 hours; untreated cells below limit of detection
Procedure: EL4 cells (10^8) were resuspended in 5 ml of culture media and incubated at 37° C. for 5 hours after being treated for one hour with emetine^16 or cycloheximide or heat shocked for 20 minutes at 45° C. (see FIG. 3J). 3T3 cells grown in 15 cm dishes were either untreated or exposed to UV light for 5 minutes and incubated in 5 hours. The cells were suspended without washing and disrupted by nitrogen cavitation followed by centrifugation, as described.^16 The resulting supernatants were diluted with 0.1 M borate, and analyzed for uric acid content using a uric acid detection kit (Molecular Probes).
EL4 cells were either heat shocked for 20 minutes at 45° C., incubated with 25 μg/ml cycloheximide, incubated with 8 μM emetine or untreated as control. 3T3 cells were either UV-irradiated or untreated as control. These treatments were previously shown by the instant inventors to increase adjuvant activity. The amount of uric acid in the cytosol of the treated cells was determined after 5 hours of incubation. […] An approximately 4-fold increase in uric acid was also observed when 3T3 cells were treated with UV (FIG. 3J).

[2] = tested on: CD8 T cell (CTL) responses to particulate HIV gp120 antigen; test: CTL priming after co-injection with antigen in LPS-nonresponsive TLR4 null mice; assay type: in vivo, C.C3H lps-d (TLR4-/-) mice; conditions: injected together with antigen
Procedure: Lipopolysaccharide (LPS) has potent immunostimulatory activity and is a frequent contaminant of buffers and other reagents. Although every attempt was made to avoid contamination of preparations with endotoxin, it was important to exclude the possibility that LPS was present in the LMW fraction and responsible for the adjuvant activity. Accordingly, similar experiments to those of Example II were carried out except that purified LMW fraction or commercially-obtained highly purified uric acid was injected together with antigen into toll-like receptor 4 (TLR4) null mice, which are nonresponsive to LPS. Specifically, congenic C.C3H lps-d (TLR4−/−) mice were used in place of Balb/c (TLR4+/+) mice.

[3] = tested on: bone marrow-derived dendritic cells (CD11c+); test: Expression of CD80 and CD86 on bone marrow-derived dendritic cells by flow cytometry; assay type: cell-based, Balb/c mice
Procedure: as §1
Accordingly, the effect of uric acid on expression of costimulators on cultured dendritic cells was tested. Uric acid was added to cultures of primary bone-marrow derived dendritic cells. Specifically, bone marrow-derived dendritic cells from Balb/c mice in 6 well plates were untreated (thin continuous line) or incubated with 20 μl of pre-formed MSU crystals (about 1.2 mg/ml final concentration) for 6 hours (heavy dashed lines) or 24 hours (heavy continuous lines). The expression of CD80 and CD86 on CD11c+ cells was then analyzed by flow cytometry.
Based upon the results set forth in Examples I-VI which identify MSU crystals as having adjuvant activity, it was concluded that other crystals with similar properties should display djuvant activity. […] The expression of CD86 on CD11c+ cells was then analyzed by flow cytometry.

[4] = Toxicity observed in the Examples; assay type: in vivo; conditions: as used in the Examples
Description: With respect to potential toxicity of the crystalline adjuvant, local reaction to injections or other morbidity of animals immunized with any adjuvant within the scope of the invention, e.g., a crystalline adjuvant, can be readily determined. With respect to the crystalline adjuvants of the present invention displaying characteristics similar to uric acid or xanthine, significant toxicity is not expected. […] Uric acid and xanthine are normal components of mammals and local administration should be relatively safe. Uric acid is effective when injected subcutaneously, which is an effective and well tolerated immunization protocol. Uric acid and xanthine thus have favorable characteristics for an adjuvant, and crystalline molecules having similar characteristics, such as those described herein, are also expected to behave favorably as immune adjuvants.

[5] = Precipitation of uric acid to MSU crystals; assay type: physicochemical; conditions: uric acid 70 μg/ml
Procedure: as §1
As discussed in Example III, LPS has a stimulatory activity and is frequently a contaminant of reagents. Dendritic cells from the TLR4-null mice were examined to verify that LPS was not the source of the observed stimulatory activity. […]

[6] = reported (ref. 18); cited from earlier work

O=c1[nH]c(=O)c2[nH]c([O-])nc2[nH]1.[Na+] [MSU crystals, monosodium urate]
activity of preformed crystals injected in vivo ([1]; preformed MSU crystals): active
stimulatory effect on dendritic cells from TLR4-null mice (dendritic cells; C.C3H lps-d (TLR4-/-) cells): the stimulatory effect was also found
stimulatory effect on dendritic cells (CD80, CD86) compared with LPS (dendritic cells; MSU crystals about 1.2 mg/ml versus 1 μg/ml LPS): stronger than that induced by high concentrations of LPS
stimulation of dendritic cells in vitro, preformed crystals versus soluble uric acid (dendritic cells; preformed MSU crystals about 1.2 mg/ml, soluble uric acid 70 μg/ml): highly stimulatory

C[C@@H]1C[C@@H]([C@H](O)CC2CC(=O)NC(=O)C2)C(=O)[C@@H](C)C1 [cycloheximide]
uric acid in the cytosol of treated EL4 cells (EL4 cells): increased dramatically

CC[C@H]1CN2CCc3cc(OC)c(OC)cc3[C@@H]2C[C@@H]1C[C@H]1NCCc2cc(OC)c(OC)cc21 [emetine]
uric acid in the cytosol of treated EL4 cells (EL4 cells): increased dramatically

O=c1[nH]c(=O)c2[nH]c(=O)[nH]c2[nH]1 [uric acid]
CTL priming ([1]; 50 μg uric acid mixed with 5 μg gp120/latex beads in 100 μl saline): enhanced CTL priming to a similar degree as the purified LMW fraction
adjuvant effect ([1]; 10-50 μg of uric acid in 100 μl): strong adjuvant effect
amount of uric acid providing an adjuvant effect when injected in vivo ([1]; titrated from 2.5-40 μg in 100 μl): about 10 μg
concentration of uric acid providing an adjuvant effect when injected in vivo ([1]; titrated from 25-400 μg/ml, 100 μl injected): ~100 µg/mL
adjuvant activity in LPS-nonresponsive mice [2]: had adjuvant activity
expression of CD86 on CD11c+ dendritic cells ([3]; 20 μl pre-formed MSU crystals (about 1.2 mg/ml final), 6 or 24 hours): markedly and rapidly
correlation of dendritic cell activation (CD86) with crystal formation ([3]; uric acid titrated in culture, 24 hours): stimulated at precisely the concentrations of uric acid that led to crystal formation
toxicity [4]: have not been observed
crystal precipitation in dendritic cell culture [5]: crystals do not precipitate within 6 hours
concentration at which uric acid precipitates in vivo [6]: > 70 µg/mL

O=c1[nH]c(=O)c2[nH]cnc2[nH]1 [xanthine]
CTL priming ([1]; 500 μg crystals mixed with 2 μg gp120/latex beads in 100 μl saline): enhanced CTL priming to a similar degree as the MSU crystals
expression of CD86 on CD11c+ dendritic cells ([3]; pre-formed crystals at 300 μg/ml final concentration, 6 hours): increase their expression of CD86 markedly
toxicity [4]: have not been observed
